In patent publication US20100129434A1, “COMPOSITIONS AND METHODS FOR THE TREATMENT OF MUCORMYCOSIS AND OTHER FUNGAL DISEASES” (priority 2006, published 2010):
In brackets after ≈: the same amount, converted by molar mass. Entries after “also recorded” stand apart in the source; their conditions may differ.

Legend:
[1] = test system: Non-oryzae Rhizopus; experiment: Deferasirox susceptibility testing (MIC/MFC), non-oryzae Rhizopus isolates; assay type: cell-based, Rhizopus spp.
Experimental: Minimum inhibitory concentration (MIC) and minimum fungicidal concentration (MFC) were determined for deferasirox by the method of Espinel-Ingroff using R. oryzae spores starved for iron (Espinel-Ingroff, (2001), supra). Cidality was defined as a <4-fold difference between MIC and MFC.
We next determined the deferasirox susceptibilities of multiple clinical isolates of Mucorales (Table 3). The MIC9OS of deferasirox against Mucor, non-oryzae Rhizopus spp., and R. oryzae were 3.12 to 6.25 μg/ml. MFCs were similar to MICs, and deferasirox was cidal for 28/29 (97%) of isolates. Of note, slight growth was seen within the first twelve hours even at extremely high concentrations of deferasirox. […] Furthermore, the MICs and MFCs of deferasirox against these isolates were well below clinically achievable peak (˜38 μg/ml) and trough serum levels (˜17 μg/ml) of the drug at steady state when administered at the FDA-approved starting dose (20 mg/kg/d).

[2] = test system: rFTR1; experiment: Expression analysis of the high affinity iron permease gene (rFTR1) by RT-PCR; assay type: cell-based, Rhizopus oryzae; conditions: R. oryzae 99-880 mycelia; 2 mM deferasirox plus 350 μM ferric chloride, 1 h at 37° C.
Experimental: R. oryzae 99-880 plugs taken from a confluent PDA plate were grown in potato dextrose broth overnight at 37° C. with shaking. Mycelia were collected aseptically and transferred to fresh PDB flasks containing 350 μM ferric chloride (to suppress the expression of rFTR1), 350 μM ferric chloride plus 2 mM deferasirox to test iron chelation, or 2 mM deferasirox plus 6 mM ferric chloride to supersaturate the added deferasirox. The flasks were incubated for 1 h at 37° C. with shaking. Mycelia were collected by filtration and ground in liquid nitrogen using mortar and pestle. Total RNA was extracted using RNeasy Plabt Mini™ kit (Qiagen®) with RLC buffer. The RNA was reverse-transcribed with oligo(dT) primer using the SuperScript™ First-Strand Synthesis System (Invitrogen®) to generate first-strand cDNA. The products were diluted and used in PCR to detect the expression of FTR1 of R. oryzae and 18 s rDNA gene. The sequences of the PCR primers are as follows: sense primer 5′-[…] -3′ and anti-sense primer 5′-[…] -3′ for rFTR1 to amplify of R. oryzae; and sense primer 5′-[…]′T′[…] -3′ and anti-sense primer 5′-[…] -3′ for 18 s rDNA gene. The PCR products were separated on a 2% agarose gel containing 0.1 μg/ml ethidium bromide. Both primer sets were designed to amplify a 400 by bands. […]

[3] = 24 h, R. microsporus ATCC 62417
[4] = 48 h, R. microsporus ATCC 62417
[5] = Non-oryzae Rhizopus MIC90/MFC90, 24 h
[6] = Non-oryzae Rhizopus MIC90/MFC90, 48 h
[7] = Rhizopus, 24 h, Rhizopus sp. 99-1150
[8] = Rhizopus, 24 h, Rhizopus sp. 99-1700
[9] = Rhizopus, 48 h, Rhizopus sp. 99-1150
[10] = Rhizopus, 48 h, Rhizopus sp. 99-1700
[11] = Rhizopus, ATCC20577, 24 h, Rhizopus sp. ATCC 20577, 24 h
[12] = Rhizopus, ATCC20577, 48 h, Rhizopus sp. ATCC 20577, 48 h

O=C(O)c1ccc(-n2nc(-c3ccccc3O)nc2-c2ccccc2O)cc1 [Deferasirox, 4-[3,5-Bis(2-hydroxyphenyl)-1H-1,2,4-triazol-1-yl]-benzoic acid]
MFC [1, 3]: 0.39 µg/mL (≈ 1.04 µM)
MIC [1, 3]: 0.39 µg/mL (≈ 1.04 µM)
MFC [1, 4]: 0.39 µg/mL (≈ 1.04 µM)
MIC [1, 4]: 0.39 µg/mL (≈ 1.04 µM)
Fungicidal? [1, 5]: Y (Cidal = MFC/MIC ≦ 4)
MFC90 [1, 5]: 6.25 µg/mL (≈ 16.7 µM)
MIC90 [1, 5]: 6.25 µg/mL (≈ 16.7 µM)
Fungicidal? [1, 6]: Y (Cidal = MFC/MIC ≦ 4)
MFC90 [1, 6]: 6.25 µg/mL (≈ 16.7 µM)
MIC90 [1, 6]: 3.12 µg/mL (≈ 8.36 µM)
Fungicidal? ([1]; R. microsporus ATCC 62417, 24 h): Y (Cidal = MFC/MIC ≦ 4)
Fungicidal? ([1]; R. microsporus ATCC 62417, 48 h): Y (Cidal = MFC/MIC ≦ 4)
Fungicidal? ([1]; Rhizopus sp. 99-1150, 24 h): Y (Cidal = MFC/MIC ≦ 4)
Fungicidal? ([1]; Rhizopus sp. 99-1150, 48 h): Y (Cidal = MFC/MIC ≦ 4)
Fungicidal? ([1]; Rhizopus sp. 99-1700, 24 h): Y (Cidal = MFC/MIC ≦ 4)
Fungicidal? ([1]; Rhizopus sp. 99-1700, 48 h): Y (Cidal = MFC/MIC ≦ 4)
Fungicidal? ([1]; Rhizopus sp. ATCC 20577, 24 h): Y (Cidal = MFC/MIC ≦ 4)
Fungicidal? ([1]; Rhizopus sp. ATCC 20577, 48 h): Y (Cidal = MFC/MIC ≦ 4)
MFC [1, 7]: 6.25 µg/mL (≈ 16.7 µM)
MIC [1, 7]: 6.25 µg/mL (≈ 16.7 µM)
MFC [1, 8]: 6.25 µg/mL (≈ 16.7 µM)
MIC [1, 8]: 6.25 µg/mL (≈ 16.7 µM)
MFC [1, 9]: 3.12 µg/mL (≈ 8.36 µM)
MIC [1, 9]: 3.12 µg/mL (≈ 8.36 µM)
MFC [1, 10]: 1.56 µg/mL (≈ 4.18 µM)
MIC [1, 10]: 1.56 µg/mL (≈ 4.18 µM)
MFC [1, 11]: 6.25 µg/mL (≈ 16.7 µM)
MIC [1, 11]: 3.12 µg/mL (≈ 8.36 µM)
MFC [1, 12]: 6.25 µg/mL (≈ 16.7 µM)
MIC [1, 12]: 3.12 µg/mL (≈ 8.36 µM)
rFTR1 gene expression (RT-PCR) [2]: expressed; also recorded: induces rFTR1 gene expression
